Test results taken from paper PMC7998250, “Temperate Zone Plant Natural Products—A Novel Resource for Activity against Tropical Parasitic Diseases” (Pharmaceuticals, 2021).

Experiments:
[1] = system: L. mexicana intramacrophage amastigotes; test: L. mexicana intramacrophage assay (NanoLuc PEST strain in THP-1); type: cell-based, Leishmania mexicana
Text: Figure S4: Leishmania intramacrophage assays. […] Data represents the mean and standard deviation (n=4). B Average number of parasites per macrophage in the same experiment as A. A Kruskal-Wallis test followed by Dunn’s multiple comparison test was used to determine a significant difference (p<0.05) of each treatment to the untreated control and have been indicated with those being significant marked with an asterix. C Comparing 700022 activity between axenic amastigotes (red) and intramacrophage amastigotes (blue). Concentration–response curves for compound 700022 against: intracellular L. mexicana NanoLuc-PEST-transgenic line (blue), axenic amastigotes of NanoLuc-PEST-transgenic line (red) as well as the human cell lines HepG2 (green) and THP-1 (black). The data for the intracellular L. mexicana NanoLuc-PEST-transgenic line represent one biological repeat of three technical repeats.

[2] = system: L. mexicana r22 promastigotes; test: EC50 in 700022-resistant L. mexicana (r22) promastigotes; type: cell-based; conditions: Leishmania mexicana, read-out: EC50 in r22 promastigotes, after 28 weeks of 700022 selection
Protocol: (§1) A 700022-resistant line of L. mexicana (r22) was generated using a previously reported method (Figure S3). […] All leishmanicidal sterols identified were assayed against r22 after 8 weeks of 700022 pressure and cross-resistance was found against all four compounds, each with a similar resistance index of between 4–5 (Figure 6c). Following 28 weeks of selection, the morphology of the r22 promastigotes was compared to that of WT (Figure 6d). […] The body area of both promastigotes and amastigotes was also assessed, noting a small (c 20%) decrease in the body area of r22 parasites compared to WT strains (Figure S3).
(§2) L. mexicana parasites were grown in increasing concentrations of 700022 in a stepwise manner, as previously described. […] A dose response assay of the newly selected promastigotes was completed as stated above, with the exception of the seeding density of 1 × 10^5 cells/mL. At this point, the drug pressure was increased to the concentration of the new EC50 value.

[3] = system: WT L. mexicana procyclic promastigotes; test: EC50 in WT L. mexicana promastigotes; type: cell-based; conditions: Leishmania mexicana, read-out: EC50 in WT promastigotes
Protocol: as §1, §2

[4] = system: activated monocyte cell line (THP-1); test: Cytotoxicity CC50, differentiated THP-1, Alamar Blue; type: cell-based, human; conditions: for CC50: differentiated THP-1, 48 h, read-out: THP1 CC50
HepG2 cells = test: Cytotoxicity CC50, HepG2, Alamar Blue; conditions: read-out: HepG2 CC50; 48 h
In short: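 Human hepatoma cells seeded at 1 × 10^5 cells/mL with two-fold serial compound dilutions, incubated 48 h at 37 °C, 5% CO2 in DMEM/10% FBS. Viability read by Alamar Blue. CC50 estimated from viability normalised to untreated controls versus log concentration.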

[5] = factor, relative to intramacrophage amastigote EC50

With `CC1=CC(O)(CC(C)C2(C)CC=C3C4=CCC5C(C)(C)C(O)CCC5(C)C4CCC32C)OC1=O` (stereo not shown) [Compound 700022] the EC50 ([1]; Leishmania mexicana, L. mexicana NanoLuc PEST strain in THP-1) was 10.7 µM, the “selectivity over HepG2” value [1, 5] was 2.7 and the “selectivity over THP-1” value [1, 5] was 1.6. It also gave an EC50 [2] of 85.6 µM and an EC50 [3] of 11.5 µM.

In the case of `C/C(=C/C(=O)CC(C)C1CCC2(C)C3=CCC4C(C)(C)C(=O)CCC4(C)C3CCC12C)C(=O)O` (stereo not shown) [Compound 700240], the “selectivity index (THP-1 CC50 / L. mexicana EC50)” value ([4]; L. mexicana compared to THP-1) is reported as 21 and the CC50 [4] is reported as 14 µM.

`C=C1C(=O)OC2CC(C)C3C=CC(=O)C3(C)C(OC(C)=O)C12` (stereo not shown) [Compound 701155] showed a CC50 (HepG2 cells) of 1.1 µM and a CC50 [4] of 0.38 µM.

With `C=C1C(=O)OC2CC(C)C3C=CC(=O)C3(C)C(OC(=O)C(C)CC)C12` (stereo not shown) [Compound 701158] the CC50 (HepG2 cells) was 0.81 µM.
